Data taken from patent US5726159A, “Antithrombotic agents” (Eli Lilly and Company, priority 1995, dated 1998).
Where a name gives a salt, the structure may show the parent alone.

Assays:
Format in all cases: biochemical
Conditions in all cases: concentration required to double the clotting time
[1] = test system: Human plasma; test: Human plasma anticoagulation, prothrombin time (PT)
Description: (§1) Dog plasma and rat plasma is obtained from conscious mixed-breed hounds (either sex, Hazelton-LRE, Kalamazoo, Mich., U.S.A.) or from anesthetized male Sprague-Dawley rats (Harlan Sprague-Dawley, Inc., Indianapolis, Ind., U.S.A.) by venipuncture into 3.8 percent citrate. Fibrinogen is prepared from in-date ACD human blood as the fraction I-2 according to previous procedures and specifications. […] Human fibrinogen is also purchased as 98 percent pure/plasmin free from American Diagnostica, Greenwich, Conn. Coagulation reagents ACTIN, Thromboplastin, and Human plasma are from Baxter Healthcare Corp., Dade Division, Miami, Fla. Bovine thrombin from Parke-Davis ([…], Mich.) is used for coagulation assays in plasma.
(§2) Coagulation assay procedures are as previously described. […] A CoAScreener coagulation instrument (American LABor, Inc.) is used for all coagulation assay measurements. The prothrombin time (PT) is measured by adding 0.05 mL saline and 0.05 mL Thromboplastin-C reagent to 0.05 mL test plasma. The activated partial thromboplastin time (APTT) is measured by incubation of 0.05 mL test plasma with 0.05 mL Actin reagent for 120 seconds followed by 0.05 mL CaCl2 (0.02M). The thrombin time (TT) is measured by adding 0.05 mL saline and 0.05 mL thrombin (10 NIH units/mL) to 0.05 mL test plasma. The compounds of Formula I are added to human or animal plasma over a wide range of concentrations to determine prolongation effects on the APTT, PT, and TT assays. Linear extrapolations are performed to estimate the concentrations required to double the clotting time for each assay.

[2] = test system: Human plasma; test: Human plasma anticoagulation, thrombin time (TT)
Description: as §1, §2

[3] = test system: Human plasma; test: Human plasma anticoagulation, activated partial thromboplastin time (APTT)
Description: as §1, §2

CCS(=O)(=O)N[C@H](CC1CCCCC1)C(=O)N1CCC[C@H]1C(=O)NCc1ccc(N)cc1F [Example 82, EtSO2 -D-Cha-Pro-4-NHCH2 -3-F-C6 H3 NH2.HCl]
2x Clotting time PT [1]: 3,000 ng/mL | 2x Clotting time TT [2]: 130 ng/mL | 2x Clotting time APTT [3]: 3,800 ng/mL

N=C(N)N1CCC(CCNC(=O)[C@@H]2CCCN2C(=O)[C@@H](CC2CCCCC2)NCC(=O)O)CC1 [Example 57, HO2 CCH2 -D-Cha-Pro-4-NHCH2 CH2 -1-amidinopiperidine.HCl]
2x Clotting time PT [1]: 340 ng/mL | 2x Clotting time TT [2]: 14 ng/mL | 2x Clotting time APTT [3]: 360 ng/mL

N=C(N)c1ccc(CNC(=O)[C@@H]2CCCN2C(=O)[C@H](NCC(=O)O)C2CCCCC2)cc1 [Example 86, HOOCCH2 -D-Chg-Pro-p-NHCH2 C6 H4 C(NH)NH2.HCl]
2x Clotting time PT [1]: 180 ng/mL | 2x Clotting time TT [2]: 4 ng/mL | 2x Clotting time APTT [3]: 81 ng/mL

N=C(N)Nc1cccc(CCNC(=O)[C@@H]2CCCN2C(=O)[C@@H]2NCC[C@@H]3CCCC[C@@H]32)c1 [Example 41, D-1-Piq-Pro-m-NHCH2 CH2 C6 H4 NHC(NH)NH2.2HCl]
2x Clotting time PT [1]: > 91,000 ng/mL | 2x Clotting time TT [2]: 82,200 ng/mL | 2x Clotting time APTT [3]: > 91,000 ng/mL

CCS(=O)(=O)N[C@H](CC1CCCCC1)C(=O)N1CCC[C@H]1C(=O)NCc1ccnc(N)c1 [Example 83, EtSO2 -D-Cha-Pro-4-NHCH2 -2-aminopyridine.HCl]
2x Clotting time PT [1]: 1,300 ng/mL | 2x Clotting time TT [2]: 91 ng/mL | 2x Clotting time APTT [3]: 1,000 ng/mL

NCc1ccc(CNC(=O)[C@@H]2CCCN2C(=O)[C@@H](CC2CCCCC2)NCC(=O)O)cc1 [Example 78, HO2 CCH2 -D-Cha-Pro-4-NHCH2 C6 H4 CH2 NH2.HCl]
2x Clotting time PT [1]: 760 ng/mL | 2x Clotting time TT [2]: 46 ng/mL | 2x Clotting time APTT [3]: 430 ng/mL

O=C(O)CN[C@H](CC1CCCCC1)C(=O)N1CCC[C@H]1C(=O)NCCCC1CCNCC1 [Example 55, HO2 CCH2 -D-Cha-Pro-4-NHCH2 CH2 CH2 -piperidine.HCl]
2x Clotting time PT [1]: > 91,000 ng/mL | 2x Clotting time TT [2]: 55,800 ng/mL | 2x Clotting time APTT [3]: > 91,000 ng/mL

CCS(=O)(=O)N[C@H](Cc1ccccc1)C(=O)N1CCC[C@H]1C(=O)NCCCc1ccc(C(=N)N)cc1 [Example 30, EtSO2 -D-Phe-Pro-p-NHCH2 CH2 CH2 -C6 H4 C(=NH)NH2.HCl]
2x Clotting time PT [1]: 14,400 ng/mL | 2x Clotting time TT [2]: 1,000 ng/mL | 2x Clotting time APTT [3]: 14,000 ng/mL

Nc1ccc(CNC(=O)[C@@H]2CCCN2C(=O)[C@@H](CC2CCCCC2)NCC(=O)O)cn1 [Example 74, HO2 CCH2 -D-Cha-Pro-5-NHCH2 -2-aminopyridine.HCl]
2x Clotting time PT [1]: 350 ng/mL | 2x Clotting time TT [2]: 20 ng/mL | 2x Clotting time APTT [3]: 420 ng/mL

CCS(=O)(=O)N[C@H](Cc1ccccc1)C(=O)N1CCC[C@H]1C(=O)NCCc1cccc(C(=N)N)c1 [Example 27, EtSO2 -D-Phe-Pro-m-NHCH2 CH2 -C6 H4 C(=NH)NH2.HCl]
2x Clotting time PT [1]: 27,000 ng/mL | 2x Clotting time TT [2]: 1,940 ng/mL | 2x Clotting time APTT [3]: 27,800 ng/mL

O=C(O)CN[C@H](CC1CCCCC1)C(=O)N1CCC[C@H]1C(=O)NCCCC1=CCNCC1 [Example 60, HO2 CCH2 -D-Cha-Pro-4-NHCH2 CH2 CH2 -3,4-dehydro-piperidine.HCl]
2x Clotting time PT [1]: 77,700 ng/mL | 2x Clotting time TT [2]: 3,200 ng/mL | 2x Clotting time APTT [3]: 22,200 ng/mL

NCC1CCC(CNC(=O)[C@@H]2CCCN2C(=O)[C@@H](CC2CCCCC2)NCC(=O)O)CC1 (stereo partly drawn) [Example 79, HO2 CCH2 -D-Cha-Pro-4-NHCH2 C6 H10 CH2 NH2.HCl]
2x Clotting time PT [1]: 2,400 ng/mL | 2x Clotting time TT [2]: 140 ng/mL | 2x Clotting time APTT [3]: 1,700 ng/mL

O=C(O)CN[C@H](CC1CCCCC1)C(=O)N1CCC[C@H]1C(=O)NCCC1CCNCC1 [Example 54, HO2 CCH2 -D-Cha-Pro-4-NHCH2 CH2 -piperidine.HCl]
2x Clotting time PT [1]: 2,200 ng/mL | 2x Clotting time TT [2]: 140 ng/mL | 2x Clotting time APTT [3]: 3,300 ng/mL

N=C(N)Nc1cccc(CNC(=O)[C@@H]2CCCN2C(=O)[C@@H]2NCC[C@@H]3CCCC[C@@H]32)c1 [Example 40, D-1-Piq-Pro-m-NHCH2 C6 H4 NHC(NH)NH2.2HCl]
2x Clotting time PT [1]: > 91,000 ng/mL | 2x Clotting time TT [2]: 35,100 ng/mL | 2x Clotting time APTT [3]: > 91,000 ng/mL

N=C(N)c1ccc(CNC(=O)[C@@H]2CCCN2C(=O)[C@@H](CC2CCCCC2)NCC(=O)O)nn1 [Example 69, HO2 CCH2 -D-Cha-Pro-3-NHCH2 -6-amidinopyridazine.HCl]
2x Clotting time PT [1]: 220 ng/mL | 2x Clotting time TT [2]: 5. ng/mL | 2x Clotting time APTT [3]: 110 ng/mL

CCS(=O)(=O)N[C@H](CC1CCCCC1)C(=O)N1CCC[C@H]1C(=O)NCc1ccc(N)nc1 [Example 84, EtSO2 -D-Cha-Pro-5-NHCH2 -2-aminopyridine.HCl]
2x Clotting time PT [1]: 1,900 ng/mL | 2x Clotting time TT [2]: 110 ng/mL | 2x Clotting time APTT [3]: 1,500 ng/mL

Nc1ccc(CNC(=O)[C@@H]2CCCN2C(=O)[C@@H](CC2CCCCC2)NCC(=O)O)c(F)c1 [Example 64, HO2 CCH2 -D-Cha-Pro-4-NHCH2 -3-F-C6 H3 NH2.HCl]
2x Clotting time PT [1]: 650 ng/mL | 2x Clotting time TT [2]: 23 ng/mL | 2x Clotting time APTT [3]: 900 ng/mL

CCS(=O)(=O)N[C@H](Cc1ccccc1)C(=O)N1CCC[C@H]1C(=O)NCCc1ccc(NC(=N)N)cc1 [Example 35, EtSO2 -D-Phe-Pro-p-NHCH2 CH2 C6 H4 CNH(NH)NH2.HCl]
2x Clotting time PT [1]: 78,400 ng/mL | 2x Clotting time TT [2]: 4,500 ng/mL | 2x Clotting time APTT [3]: 50,400 ng/mL

N=C(N)c1cc(F)c(CNC(=O)[C@@H]2CCCN2C(=O)[C@@H](CC2CCCCC2)NCC(=O)O)c(F)c1 [Example 72, HO2 CCH2 -D-Cha-Pro-4-NHCH2 -3,5-F2 -benzamidine.HCl]
2x Clotting time PT [1]: 160 ng/mL | 2x Clotting time TT [2]: 1 ng/mL | 2x Clotting time APTT [3]: 160 ng/mL

O=C(O)CN[C@H](CC1CCCCC1)C(=O)N1CCC[C@H]1C(=O)NCC1=CCNCC1 [Example 58, HO2 CCH2 -D-Cha-Pro-4-NHCH2 -3,4-dehydro-piperidine.HCl]
2x Clotting time PT [1]: 11,400 ng/mL | 2x Clotting time TT [2]: 710 ng/mL | 2x Clotting time APTT [3]: 14,300 ng/mL

HOOCCH2 -D-hPhe-Pro-p-NHCH2 C6 H4 C(NH)NH2.HCl [Example 87]
2x Clotting time PT [1]: 310 ng/mL | 2x Clotting time TT [2]: 9 ng/mL | 2x Clotting time APTT [3]: 260 ng/mL

N=C(N)N1CCC(CNC(=O)[C@@H]2CCCN2C(=O)[C@@H](CC2CCCCC2)NCC(=O)O)CC1 [Example 56, HO2 CCH2 -D-Cha-Pro-4-NHCH2 -1-amidinopiperidine.HCl]
2x Clotting time PT [1]: 200 ng/mL | 2x Clotting time TT [2]: 5 ng/mL | 2x Clotting time APTT [3]: 160 ng/mL

Nc1cc(CCNC(=O)[C@@H]2CCCN2C(=O)[C@@H](CC2CCCCC2)NCC(=O)O)ccn1 [Example 76, HO2 CCH2 -D-Cha-Pro-4-NHCH2 CH2 -2-aminopyridine.HCl]
2x Clotting time PT [1]: 560 ng/mL | 2x Clotting time TT [2]: 29 ng/mL | 2x Clotting time APTT [3]: 490 ng/mL

CCS(=O)(=O)N[C@H](Cc1ccccc1)C(=O)N1CCC[C@H]1C(=O)NCc1cccc(C(=N)N)c1 [Example 24, EtSO2 -D-Phe-Pro-m-NHCH2 -C6 H4 C(=NH)NH2.HCl]
2x Clotting time PT [1]: 25,000 ng/mL | 2x Clotting time TT [2]: 1,000 ng/mL | 2x Clotting time APTT [3]: 25,900 ng/mL

N=C(N)N1CC=C(CNC(=O)[C@@H]2CCCN2C(=O)[C@@H](CC2CCCCC2)NCC(=O)O)CC1 [Example 70, HO2 CCH2 -D-Cha-Pro-4-NHCH2 -1-amidino-3,4-dehydro-piperidine.HCl]
2x Clotting time PT [1]: 180 ng/mL | 2x Clotting time TT [2]: 2 ng/mL | 2x Clotting time APTT [3]: 160 ng/mL

O=C(O)CN[C@H](CC1CCCCC1)C(=O)N1CCC[C@H]1C(=O)NCC1CCNCC1 [Example 53, HO2 CCH2 -D-Cha-Pro-4-NHCH2 -piperidine.HCl]
2x Clotting time PT [1]: 34,500 ng/mL | 2x Clotting time TT [2]: 1,400 ng/mL | 2x Clotting time APTT [3]: 33,800 ng/mL

D-hPro-Pro-p-NHCH2 C6 H4 C(NH)NH2.HCl [Example 17]
2x Clotting time PT [1]: 400 ng/mL | 2x Clotting time TT [2]: 26 ng/mL | 2x Clotting time APTT [3]: 370 ng/mL

CCC(CC)C(=O)N[C@@H](CCC(=O)O)C(=O)N1CCC[C@H]1C(=O)NCc1ccc(C(=N)N)cc1 [Example 90, (C2 H5)2 CHCO-Glu-Pro-p-NHCH2 C6 H4 C(NH)NH2.HCl]
2x Clotting time PT [1]: 14,600 ng/mL | 2x Clotting time TT [2]: 330 ng/mL | 2x Clotting time APTT [3]: 14,500 ng/mL

Nc1cc(CNC(=O)[C@@H]2CCCN2C(=O)[C@@H](CC2CCCCC2)NCC(=O)O)ccn1 [Example 73, HO2 CCH2 -D-Cha-Pro-4-NHCH2 -2-aminopyridine.HCl]
2x Clotting time PT [1]: 330 ng/mL | 2x Clotting time TT [2]: 21 ng/mL | 2x Clotting time APTT [3]: 340 ng/mL

1-Piq-Pro-p-NHCH2 C6 H4 C(NH)NH2.2HCl [Example 18]
2x Clotting time PT [1]: 170 ng/mL | 2x Clotting time TT [2]: 7 ng/mL | 2x Clotting time APTT [3]: 79 ng/mL
